# Data published in patent US10273313B2, “Multimeric mannosides, a process for preparing the same and their uses as a drug” (CENTRE NATIONAL DE LA RECHERCHE SCIENTIFIQUE, priority 2012, dated 2019).
# “Also recorded” adds a separate entry of the source.
# Assays:
# FimH = FimH (Escherichia coli, UniProt P08191); assay type: binding; conditions: competitive ELISA; for Concentration blocking FimH binding towards oligomannose glycans: RNAseB substrate
# Description: Journal of the American Society for Mass Spectrometry, 2009. […] Tested compounds were added to wells following with FimH treatment.
# Plates were coated with 100 μl of 10 mg/ml solution of RNAse-B in 100 mM carbonate/bicarbonate buffer pH 9.6. […] 2 h. Then washed three times with 10 mM PBS containing 0.05% Tween-20. […] Wells were washed three times with 10 mM PBS+0.05% Tween-20. 100 μl of anti-body conjugated to horseradish peroxidase (1:5000) was added in buffer and incubated for 1 h at room temperature. Then washed three times with 10 mM PBS+0.05% Tween-20. Added 100 μl of TMB and incubated in dark for 2-5 min. The reaction was stopped with 100 μl/well 1N sulfuric acid. Plate absorbance was analyzed at 450 nm using microplate reader.
# [1] = test system: CD-associated E. coli strain AIEC LF82; assay: Hemagglutination inhibition (HAI) with AIEC LF82, guinea pig erythrocytes; assay type: cell-based, Escherichia coli
# Description: AIEC adhesion to the gut occurs through the binding of FimH adhesins to the mannosylated glycans of intestinal cells. This scenario was first mimicked here with the highly mannosylated glycocalyx of guinea pig erythrocytes.
# A two-fold dilution series of the antagonists was added to wells containing guinea pig erythrocytes and AIEC LF82 bacteria. The formation of the cross-linked network (hemagglutination) due to the interaction of the E. coli FimH adhesins with the glycocalyx of the erythrocytes was prevented at a certain concentration of inhibitors. The lowest concentration at which hemagglutination is still inhibited is defined as the inhibition titer of the antagonist. HM was included in the assay to obtain a relative inhibitory concentration (rIC) for the antagonists by dividing the inhibitory concentration (IC) of the substance of interest by the value for HM. In fact, rICs are more accurate than rough inhibition titers to compare the potency of antagonists evaluated in different assays.
# [2] = test system: AIEC strain LF82 adhesion to T84 intestinal epithelial cells; assay: Adhesion assay on T84 cells with thiazolylaminomannosides (Example 22.3); assay type: cell-based, Escherichia coli; conditions: for Inhibitory effect on adhesion: 100 nM; for inhibition at 10 µM: Escherichia coli, Epithelial cell, read-out: Inhibition of adhesion
# Description: T84 Intestinal Epithelial cells (overexpressing the receptor CEACAM6) were beforehand incubated for 1 h with the synthetic thiazolylaminomannosides 6-20 (examples 3-17) at different concentrations. Each compound was tested four times at concentrations of 0.1, 1, 10 and 100 μM.
# The cells were then infected in the presence of inhibitory compounds by the AIEC strain of reference LF82 for 3 hours at a multiplicity of infection of 10 bacteria to a cell. After 3 h of incubation, the monolayer was washed and the number of AIEC bacteria associated with cells was counted. The level of adhesion of AIEC LF82 strain in the presence of inhibitors (residual adhesion) was expressed relatively to the level of adherence in the absence of any treatment (considered 100%) (FIG. 10).
# [3] = test system: AIEC LF82 bacteria on colonic tissue from transgenic mice expressing human CEACAM6; assay: Ex-vivo adhesion assay on colonic tissue of CEABAC10 mice; set-up: species or system CEABAC10 transgenic mice; conditions: 1 h
# Description: E. coli strain LF82 was isolated from a chronic ileal lesion of a patient with Crohn's disease (CD). Bacteria were grown routinely in Luria-Bertani (LB) broth overnight at 37° C.
# Adhesion assay of AIEC LF82 bacteria were performed using colonic tissue from transgenic mice expressing the human CEACAM6 protein (C. H. Chan, C. P. Stanners “Novel mouse model for carcinoembryonic antigen-based therapy”, Mol Ther. 2004; 9, 775-785). Briefly, 10 to 12-week-old FVB/N CEABAC10 transgenic mice were anesthetized, euthanized by cervical dislocation and colons were removed. Colons were washed twice in phosphate buffer saline (PBS) and were segmented in 4 independent loops of ≈0.6 cm. A volume of 100 μL of LF82 bacteria at 2×10^6 bacteria/mL in PBS or of a mix of LF82 bacteria+D-mannose (1 μmol and 10 μmol) or compound 13 (0.1 μmol and 0.01 μmol) were injected into the loops. Loops were incubated 1 h at 37° C. in an atmosphere containing 5% of CO2, and then opened and washed 4 times in PBS. Tissues were homogenized, appropriately diluted and plated onto Luria-Bertani agar plates containing ampicillin (100 μg/mL) and erythromycin (20 μg/mL) to select AIEC LF82 bacteria.
# Entire colons from CEABAC10 mice were collected and washed two times with PBS. The colon was divided in 4 isolated loops and 100 μL of a bacterial suspension containing […] bacteria/mL with or without inhibitory compounds were injected into the loops. D-mannose was tested at a dose of 1 and 10 μmol and monovalent 13 was tested at a dose of 0.01 and 0.1 μmol. After a 1 h-period of incubation, samples were extensively washed and homogenized to numerate adherent bacteria. Bacterial adhesion was expressed as percentages of residual adhesion (100% corresponds to the adhesion in absence of any compound).
# [4] = test system: AIEC LF82 bacteria adhesion to T84 intestinal epithelial cells; assay: Adhesion assay on T84 cells, pre-, co- and post-incubation protocols (Example 21.2); assay type: cell-based, Escherichia coli; conditions: pre-incubation assay
# Description: E. coli strain LF82 was isolated from a chronic ileal lesion of a patient with Crohn's disease (CD). Bacteria were grown routinely in Luria-Bertani (LB) broth overnight at 37° C. Intestinal epithelial cells T84 derived from colonic adenocarcinoma were maintained in an atmosphere containing 5% CO2 at 37° C. in DMEM/F12 (50/50) medium supplemented with 10% (v/v) heat-inactivated fetal calf serum (FCS), 1% L-glutamine, 100 000 U·l^−1 penicillin, 100 mg·l^−1 streptomycin, 25 μg·l^−1 amphotericin B.
# T84 were seeded in 48-well plates at a concentration of 1.5×10^5 cells per well and grown for 48 h. AIEC LF82 bacteria were incubated 1 h with each mannoside prior the cell infection (pre-incubation protocol) or they were added simultaneously onto the cells (co-incubation protocol) in complete medium without antibiotics, containing heat inactivated fetal calf serum (FCS). Heptyl-mannose or compound 2 (example 1) were tested at a dose of 100; 10; 1 or 0.1 μM. D-D-mannose was tested at a dose of 10 000; 1 000; 100 or 10 μM and compound 1 (example 2bis) was tested at a concentration of 500; 100; 10 or 1 μM. Cells were infected with AIEC LF82 bacteria at a multiplicity of infection (MOI) of 10 bacteria per cell for 3 h at 37° C. For the post-incubation protocol, mannosides were incubated with cells for 3 h after bacterial infection. A washing step was realized before this post-incubation to eliminate non-adherent bacteria. Monolayers were washed in phosphate-buffered saline (PBS; pH 7.2) and cells were then lysed with 1% Triton X-100 in deionized water. Samples were diluted and plated onto Luria Bertani agar plates to determine the number of colony-forming units (CFU) recovered from the lysed monolayers. Results were expressed as percentages of residual adhesion, considering adhesion level of AIEC LF82 without mannoside treatment as 100%.
# Chain of FimH (P08191 22-300): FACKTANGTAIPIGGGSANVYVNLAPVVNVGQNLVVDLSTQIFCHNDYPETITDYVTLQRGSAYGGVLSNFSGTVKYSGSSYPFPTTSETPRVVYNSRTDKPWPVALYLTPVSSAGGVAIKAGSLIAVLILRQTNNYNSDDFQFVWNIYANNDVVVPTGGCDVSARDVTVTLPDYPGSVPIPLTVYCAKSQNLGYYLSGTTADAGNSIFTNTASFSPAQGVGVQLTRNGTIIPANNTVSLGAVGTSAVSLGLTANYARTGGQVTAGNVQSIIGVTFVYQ
smiles,measurement,setting,value
"O=C(c1ccsc1)c1cnc(N[C@H]2OC(CO)[C@@H](O)[C@H](O)C2O)s1 (mixture of isomers) [Compound 12, 2-(α-D-mannopyranosyl)amino-5-(thiophene-3-carbonyl)thiazole]",Concentration blocking FimH binding towards oligomannose glycans,FimH,50 nM
"O=C(c1cccs1)c1cnc(N[C@H]2OC(CO)[C@@H](O)[C@H](O)C2O)s1 (mixture of isomers) [Compound 14, 2-(α-D-mannopyranosyl)amino-5-(thiophene-2-carbonyl)thiazole]",Concentration blocking FimH binding towards oligomannose glycans,FimH,50 nM
"O=C(c1cnc(N[C@H]2O[C@H](CO)[C@@H](O)[C@H](O)[C@@H]2O)s1)C(F)(F)F [Compound 7, 2-(α-D-mannopyranosyl)amino-5-trifluoroacetylthiazole]",Inhibitory potency in HAI (in words),[1],less potent than HM; also recorded: significantly less potent than 6
same,Concentration blocking FimH binding towards oligomannose glycans,FimH,50 nM
"O=C(c1ccccc1)c1cnc(N[C@H]2O[C@H](CO)[C@@H](O)[C@H](O)[C@@H]2O)s1 [Compound 8, 2-(α-D-mannopyranosyl)amino-5-benzoylthiazole]",Inhibitory effect on adhesion,[2],significant inhibitory effect
same,Level of inhibition compared to the HM reference,FimH,significantly higher level of inhibition
same,Concentration blocking FimH binding towards oligomannose glycans,FimH,5 nM
"CC(C)(C)C(=O)c1cnc(N[C@H]2OC(CO)[C@@H](O)C(O)C2O)s1 (stereo partly drawn) [Compound 9, 2-(α-D-mannopyranosyl)amin-5-tert-butylcarbonylthiazole]",Concentration blocking FimH binding towards oligomannose glycans,FimH,50 nM
"O=C(c1ccc([N+](=O)[O-])cc1)c1cnc(N[C@H]2O[C@H](CO)[C@@H](O)[C@H](O)[C@@H]2O)s1 [Compound 10, 2-(α-D-mannopyranosyl)amino-5-(4-nitrobenzoyl)thiazole]",Inhibitory potency in HAI (in words),[1],less potent than the unsubstituted phenyl analogue 8
same,Inhibitory effect on adhesion,[2],significant inhibitory effect
same,inhibition at 10 µM,[2],> 90%
"Cc1ccc(C(=O)c2cnc(N[C@H]3O[C@H](CO)[C@@H](O)[C@H](O)[C@@H]3O)s2)cc1 [Compound 11, 2-(α-D-mannopyranosyl)amino-5-(4-methylbenzoyl)thiazole]",Concentration blocking FimH binding towards oligomannose glycans,FimH,50 nM
"O=C(c1cnc(N[C@H]2OC(CO)[C@@H](O)C(O)C2O)s1)C12CC3CC(CC(C3)C1)C2 (stereo partly drawn) [Compound 16, 5-((3r,5r,7r)-adamantane-1-carbonyl)-2-(α-D-mannopyranosyl)aminothiazole]",Inhibitory potency in HAI (in words),[1],significant improvement
same,Inhibitory effect on adhesion,[2],significant inhibitory effect
"O=C(c1ccncc1)c1cnc(N[C@H]2O[C@H](CO)[C@@H](O)[C@H](O)[C@@H]2O)s1 [Compound 17, 2-(α-D-mannopyranosyl)amino-5-isonicotinoylthiazole]",inhibition at 10 µM,[2],> 90%
"O=C(c1ccc(Br)cc1)c1cnc(N[C@H]2O[C@H](CO)[C@@H](O)[C@H](O)[C@@H]2O)s1 [Compound 19, 2-(α-D-mannopyranosyl)amino-5-(4-bromobenzoyl)thiazole]",inhibition at 10 µM,[2],> 90%
"N#Cc1ccc(C(=O)c2cnc(N[C@H]3O[C@H](CO)[C@@H](O)[C@H](O)[C@@H]3O)s2)cc1 [Compound 20, 2-(α-D-mannopyranosyl)amino-5-(4-cyanobenzoyl)thiazole]",Inhibitory potency in HAI (in words),[1],less potent than the unsubstituted phenyl analogue 8
"OC[C@H]1O[C@H](O)[C@@H](O)[C@@H](O)[C@@H]1O [D-mannose, α-D-mannose, reference compound]",Bacterial adhesion,[3]; 1 μmol,no decrease
same,Bacterial adhesion (residual),[3]; dose of 10 μmol,41%
same,Residual adhesion,[2]; 1000 μM,51.6%
same,Concentration leading to decreased adhesion levels of at least 50%,[4],1000 µM
